Reference: PubChem BioAssay (NCI)
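Five concentrations, 48 hours, 96-well plates. TGI denotes the concentration required for complete inhibition of growth.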 *1 amine or outer side, *2 acyl side, *3 side chain or, on linkers, in order; H or OH if unused. Where a SMILES comes first, the peptide text is derived from it. [ ]: non-standard residue; d: D form. The star is where a group is joined. ξ: configuration not given here. X27 = O=C([C@H]1CCC[C@H]1N[*:1])[*:2]; ξW = NC(Cc1c[nH]c2ccccc12)C(=O)O; ξF = NC(Cc1ccccc1)C(=O)O; Boc = CC(C)(C)OC(=O)*; ξK = NCCCCC(N)C(=O)O; ξT = CC(O)C(N)C(=O)O; tBu = CC(C)(C)*

Key:
Assay in all cases: NCI anticancer screen, dose series, 48 h
SNB-75 CNS = test system: SNB-75 CNS
PC-3 prostate = test system: PC-3 prostate
MDA-N = test system: MDA-N
OVCAR-5 ovarian = test system: OVCAR-5 ovarian
LOX IMVI melanoma = test system: LOX IMVI melanoma
MCF7 breast = test system: MCF7 breast
HCC-2998 colon = test system: HCC-2998 colon
SF-295 CNS = test system: SF-295 CNS
SN12C renal = test system: SN12C renal
NCI-H460 lung = test system: NCI-H460 lung
SK-OV-3 ovarian = test system: SK-OV-3 ovarian
UACC-62 melanoma = test system: UACC-62 melanoma
NCI-H226 lung = test system: NCI-H226 lung
SF-539 CNS = test system: SF-539 CNS
HS 578T breast = test system: HS 578T breast
TK-10 renal = test system: TK-10 renal
HL-60(TB) leukemia = test system: HL-60(TB) leukemia
CAKI-1 renal = test system: CAKI-1 renal
HOP-92 NSCLC = test system: HOP-92 NSCLC
SNB-19 CNS = test system: SNB-19 CNS
M14 melanoma = test system: M14 melanoma
CCRF-CEM leukemia = test system: CCRF-CEM leukemia
K-562 leukemia = test system: K-562 leukemia
SK-MEL-2 melanoma = test system: SK-MEL-2 melanoma
HT29 colon = test system: HT29 colon
IGROV1 ovarian = test system: IGROV1 ovarian
A549 NSCLC = test system: A549 NSCLC
MDA-MB-231 breast = test system: MDA-MB-231 breast
SF-268 CNS = test system: SF-268 CNS
U251 CNS = test system: U251 CNS
HOP-62 NSCLC = test system: HOP-62 NSCLC
T-47D breast = test system: T-47D breast
KM12 colon = test system: KM12 colon
SR leukemia = test system: SR leukemia
NCI-H23 lung = test system: NCI-H23 lung
RXF 393 renal = test system: RXF 393 renal
MDA-MB-435 = test system: MDA-MB-435
SW-620 colon = test system: SW-620 colon
OVCAR-4 ovarian = test system: OVCAR-4 ovarian
ACHN renal = test system: ACHN renal
COLO 205 colon = test system: COLO 205 colon
OVCAR-3 ovarian = test system: OVCAR-3 ovarian
RPMI-8226 leukemia = test system: RPMI-8226 leukemia
UACC-257 melanoma = test system: UACC-257 melanoma
SK-MEL-5 melanoma = test system: SK-MEL-5 melanoma
DU-145 prostate = test system: DU-145 prostate
EKVX NSCLC = test system: EKVX NSCLC
UO-31 renal = test system: UO-31 renal
MOLT-4 leukemia = test system: MOLT-4 leukemia
SK-MEL-28 melanoma = test system: SK-MEL-28 melanoma
NCI-H522 lung = test system: NCI-H522 lung
HCT-15 colon = test system: HCT-15 colon
786-0 renal = test system: 786-0 renal
MALME-3M melanoma = test system: MALME-3M melanoma
OVCAR-8 ovarian = test system: OVCAR-8 ovarian
NCI/ADR-RES ovarian = test system: NCI/ADR-RES ovarian
HCT-116 colon = test system: HCT-116 colon

`COc1nc2ccc(COc3ccc(C(=O)NC(CCC(=O)O)C(=O)O)cc3)cc2nc1OC` (stereo not drawn) was tested, and the TGI (SNB-75 CNS) was > 10 µM, the TGI (PC-3 prostate) was > 10 µM and the TGI (MDA-N) was > 10 µM. For the same compound, the TGI (OVCAR-5 ovarian) was > 10 µM, the TGI (LOX IMVI melanoma) was > 10 µM and the TGI (MCF7 breast) was > 10 µM. For the same compound, the TGI (HCC-2998 colon) was > 10 µM, the TGI (SF-295 CNS) was > 10 µM and the TGI (SN12C renal) was > 10 µM. The TGI (NCI-H460 lung) was > 10 µM, the TGI (SK-OV-3 ovarian) was > 10 µM and the TGI (UACC-62 melanoma) was > 10 µM. The TGI (NCI-H226 lung) was > 10 µM, the TGI (SF-539 CNS) was > 10 µM and the TGI (HS 578T breast) was > 10 µM. The TGI (TK-10 renal) was > 10 µM, the TGI (HL-60(TB) leukemia) was > 10 µM and the TGI (CAKI-1 renal) was > 10 µM. The TGI (HOP-92 NSCLC) was > 10 µM, the TGI (SNB-19 CNS) was > 10 µM and the TGI (M14 melanoma) was > 10 µM. The TGI (CCRF-CEM leukemia) was > 10 µM, the TGI (K-562 leukemia) was > 10 µM and the TGI (SK-MEL-2 melanoma) was > 10 µM. The TGI (HT29 colon) was > 10 µM, the TGI (IGROV1 ovarian) was > 10 µM and the TGI (A549 NSCLC) was > 10 µM. For the same compound, the TGI (MDA-MB-231 breast) was > 10 µM, the TGI (SF-268 CNS) was > 10 µM and the TGI (U251 CNS) was > 10 µM. The TGI (HOP-62 NSCLC) was > 10 µM, the TGI (T-47D breast) was > 10 µM and the TGI (KM12 colon) was > 10 µM. The TGI (SR leukemia) was > 10 µM, the TGI (NCI-H23 lung) was > 10 µM and the TGI (RXF 393 renal) was > 10 µM. For the same compound, the TGI (MDA-MB-435) was > 10 µM, the TGI (SW-620 colon) was > 10 µM and the TGI (OVCAR-4 ovarian) was > 10 µM. The TGI (ACHN renal) was > 10 µM, the TGI (COLO 205 colon) was > 10 µM and the TGI (OVCAR-3 ovarian) was > 10 µM. The TGI (RPMI-8226 leukemia) was > 10 µM, the TGI (UACC-257 melanoma) was > 10 µM and the TGI (SK-MEL-5 melanoma) was > 10 µM. For the same compound, the TGI (DU-145 prostate) was > 10 µM, the TGI (EKVX NSCLC) was > 10 µM and the TGI (UO-31 renal) was > 10 µM. The TGI (MOLT-4 leukemia) was > 10 µM, the TGI (SK-MEL-28 melanoma) was > 10 µM and the TGI (NCI-H522 lung) was > 10 µM. The TGI (HCT-15 colon) was > 10 µM.

With `CC(OC(C)(C)C)C1NC(=O)C(CCCCNC(=O)OC(C)(C)C)NC(=O)C(Cc2c[nH]c3ccccc23)NC(=O)C(Cc2ccccc2)NC(=O)[C@H]2CCC[C@H]2NC(=O)C(Cc2ccccc2)NC1=O` (stereo partly drawn) (cyclo([X27][ξF][ξW][ξK](Boc)[ξT](tBu)[ξF])) the TGI (786-0 renal) was > 100 µM, the TGI (SNB-75 CNS) was > 100 µM and the TGI (PC-3 prostate) was > 100 µM. For the same compound, the TGI (MDA-N) was > 100 µM, the TGI (OVCAR-5 ovarian) was 59.8 µM and the TGI (LOX IMVI melanoma) was > 100 µM. The TGI (MCF7 breast) was > 100 µM, the TGI (HCC-2998 colon) was > 100 µM and the TGI (SF-295 CNS) was 73.7 µM. The TGI (SN12C renal) was 88.6 µM, the TGI (NCI-H460 lung) was > 100 µM and the TGI (SK-OV-3 ovarian) was > 100 µM. The TGI (UACC-62 melanoma) was > 100 µM, the TGI (NCI-H226 lung) was > 100 µM and the TGI (SF-539 CNS) was > 100 µM. The TGI (HS 578T breast) was 28.4 µM, the TGI (MALME-3M melanoma) was > 100 µM and the TGI (HL-60(TB) leukemia) was > 100 µM. The TGI (CAKI-1 renal) was > 100 µM, the TGI (HOP-92 NSCLC) was > 100 µM and the TGI (SNB-19 CNS) was 69.6 µM. The TGI (OVCAR-8 ovarian) was > 100 µM, the TGI (M14 melanoma) was > 100 µM and the TGI (CCRF-CEM leukemia) was > 100 µM. For the same compound, the TGI (K-562 leukemia) was > 100 µM, the TGI (NCI/ADR-RES ovarian) was > 100 µM and the TGI (SK-MEL-2 melanoma) was 62.8 µM. For the same compound, the TGI (HT29 colon) was > 100 µM, the TGI (IGROV1 ovarian) was > 100 µM and the TGI (A549 NSCLC) was > 100 µM. For the same compound, the TGI (MDA-MB-231 breast) was > 100 µM, the TGI (SF-268 CNS) was > 100 µM and the TGI (U251 CNS) was > 100 µM. The TGI (HOP-62 NSCLC) was > 100 µM, the TGI (T-47D breast) was > 100 µM and the TGI (KM12 colon) was > 100 µM. The TGI (SR leukemia) was > 100 µM, the TGI (NCI-H23 lung) was > 100 µM and the TGI (RXF 393 renal) was > 100 µM. The TGI (MDA-MB-435) was > 100 µM, the TGI (HCT-116 colon) was > 100 µM and the TGI (SW-620 colon) was > 100 µM. The TGI (OVCAR-4 ovarian) was > 100 µM, the TGI (ACHN renal) was > 100 µM and the TGI (COLO 205 colon) was > 100 µM. The TGI (OVCAR-3 ovarian) was > 100 µM, the TGI (RPMI-8226 leukemia) was > 100 µM and the TGI (UACC-257 melanoma) was 33.5 µM. For the same compound, the TGI (SK-MEL-5 melanoma) was 16.1 µM, the TGI (DU-145 prostate) was > 100 µM and the TGI (EKVX NSCLC) was > 100 µM. The TGI (UO-31 renal) was > 100 µM, the TGI (MOLT-4 leukemia) was > 100 µM and the TGI (SK-MEL-28 melanoma) was > 100 µM. The TGI (NCI-H522 lung) was > 100 µM and the TGI (HCT-15 colon) was > 100 µM.
